Patent US20240415791A1, “Therapeutic methods and compositions for treating cancer using devimistat and a fatty acid oxidation inhibitor, a tyrosine kinase inhibitor, a glutaminase inhibitor, and/or a glycolysis inhibitor” (Cornerstone Pharmaceuticals, Inc., priority 2021, published 2024)

Legend:
[1] = Oral bioavailability / plasma pharmacokinetics of devimistat formulations in mice; set-up: species or system BALB/c nude mice; details: mouse, in vivo
Experimental: […]; 5 mL/kg; Ex. 7A); (2) 5 μL/g IP injection of the triethanolamine/dextrose aqueous solution of Example 7 (25 mg/kg; 5 mL/kg; 7A); (3) 5 μL/g oral administration of the Eudragit L100 SDD suspension of Example 7 (100 mg/kg; 5 mL/kg; 7B); (4) 5 μL/g oral administration of the HPMCAS-M SDD suspension of Example 7 (100 mg/kg; 5 mL/kg; 7C); (5) 5 μL/g oral administration of the 20 mg/mL devimistat suspension of Example 7 (100 mg/kg; 5 mL/kg; 7D); or (6) 10 μL/g oral administration of the 10 mg/mL SOLUTOL solution of Example 7 (100 mg/kg; 10 mL/kg; 7E). In each experiment, about 80 μL of blood was collected from one subgroup of 4 male and 4 female mice at 0.083, 1, 4, and 24 hours after dosing, and from the other subgroup of 4 male and 4 female mice at 0.5, 2, and 8 hours. Plasma from the collected blood samples was analyzed by LC-MS/MS for the presence of devimistat.

PANC1 cells = test: Devimistat-induced cell death (ATP after recovery) in PANC1 cells; type: cell-based, human; details: exogenous nutrient-free conditions
Experimental: Cells were plated at 80% confluency in complete RPMI in black, clear bottom 96-well plates or 35-mm dishes for ATP, protein and glycogen analysis, or glass coverslips for fluorescence visualization. To create low nutritional conditions, cells were seeded in complete media, after 24 hours cells were transferred to serum free RPMI for 18-24 hours. Prior to drug treatment, cells were incubated in a nutrient-free carbonate buffered salt solution (CBS2) for 3 hours. Drug treatments were then carried out in CBS2 with addition of nutrient sources and/or chemical agents as described in the Examples and Figures.
LOGIC: High throughput, plate reader assays for cell death essentially always ultimately depend on metabolic activity of cells to identify viability, directly or indirectly. Thus, strong inhibition of metabolic activity by anti-metabolism agents like those described herein can confound cell death analysis by such assays. […] The inventors thus used a recovery-based assay wherein cells are treated with anti-metabolic agents under conditions where mitochondrial metabolism is (or becomes) limiting on viability. After experimental treatment, drug and media are removed and cells are allowed to recover in serum-free RPMI. RPMI provides high levels of glucose in support of glycolytic ATP generation (independently of mitochondrial function), allowing viable cells to recover ATP levels that are ultimately measured in the plate assay to score cell viability. Under these conditions, cells that are committed to execution of cell death by the experimental treatment score as dead and cells that have not committed to cell death recover ATP levels and score as viable.
Specifically, after exposure to the treatments indicated, cells are allowed to recover ([…]) in RPMI without serum. Survival is assessed by conventional luminescence measurement of ATP levels after this recovery.
TECHNICAL DETAILS: Immediately after drug treatments, acute ATP levels of cells in black, clear bottom 96-well plates were measured using the CellTiter-Glo® Luminescent Cell Viability Assay (catalog #G775B) following Promega (Madison, WI) protocols. To assess cell viability, after drug treatments, drug/agent-containing medium was replaced with serum-free RPMI and cells were incubated for an additional 17-24 hours to allow recovery of viable cells, without additional cell division. After this recovery period ATP levels were measured using the CellTiter-Glo® Luminescent Cell Viability Assay as described above.
A. Exogenous glucose protects from devimistat-induced cell death. Four different cell lines were exposed for 15 hours (PANC1, AsPC1, H460) or 8 hours (PC3) to the indicated range of devimistat doses in the absence of exogenous nutrients (in carbonate buffered balanced salts solution, CBS2) after 3 hours of preincubation in CBS2 (for cell adaptation and to equilibrate soluble nutrient pools). Cells were exposed to the treatments indicated, followed by recovery (24 hours) in RPMI without serum (providing nutrient support for viable cell recovery, without serum factors for cell division). Survival is assessed by conventional luminescence measurement of ATP levels after this recovery. […] The relatively large quantitative differences in devimistat sensitivity between cell lines under exogenous nutrient deprivation are characteristic of each line (see examples below), with small experiment-to-experiment variation. […]

[2] = test system: BxPC3, PANC1, AsPC1 and H460 cells; test: 3H-2-deoxyglucose uptake by tumor cell lines; type: cell-based, human; details: 240 μM devimistat, complete RPMI, two hours
Experimental: Cells were treated in complete RPMI with devimistat (240 μM) for a total of 2 hours, with a pulse of 1,2-^3H 2-deoxyglucose at the end of this treatment for the times indicated in Example 1D and FIG. 1D. Cells were harvested, washed, and counted to asses uptake. More particularly, seeding, drug treatment, and 2DG uptake were all performed in RPMI medium supplemented with 10% FBS for BXPC3, H460 and PANC1 cells and DMEM+10% FBS for AsPC1. All treatments were done in triplicate. BxPC3 cells were seeded at 500,000 cells per 35-mm dish; H460, PANC1, and AsPC1 cells were plated in 6 well plates at 300,000 cells per well for PANC1 and at 500,000 cells per well for AsPC1 and H460. […]
At the end of the 2 hour drug treatment, plates were placed on ice, medium removed and plates were washed three times with ice cold medium without FBS. […] Lysates were transferred into scintillation vials containing 3 mL of scintillation cocktail and counted.
D. Pulse analysis of ^3H-2-deoxyglucose (2DG) uptake by tumor cell lines. ˜8×10^5 cells were treated with 240 μM devimistat or solvent control in complete RPMI for two hours and pulse labeled by addition of 0.5 μCi of ^3H-2DG for the final 0.25 or 1 hour of treatment as indicated in FIG. 1D. Cells were washed in ice-cold RPMI without serum, lysed, and counted (see Methods, above).

[3] = cited from earlier work

For `O=C(O)CCCCC(CCSCc1ccccc1)SCc1ccccc1` (centres unmarked) [devimistat, 6,8-bis(benzylsulfanyl)octanoic acid], the “oral bioavailability (in words)” value [1] was “orally bioavailable”, the “sensitivity of PANC1 line to devimistat monotherapy” value (PANC1 cells) was “sensitive to devimistat monotherapy” and the “3H-2-deoxyglucose (glucose) uptake” value [2] was “accelerated glucose uptake”. For the same compound, the “half-life after IV dosing” value ([3]; IV dosing) was 1 to 2 h and the “peak serum concentration after clinical infusion” value ([3]; clinical IV infusion) was ~100 µM.
